Biological target: T1, recombinant human monoacylglyceride lipase (rhMAGL) (Homo sapiens, UniProt Q99685)
T1 sequence (Q99685 1-303): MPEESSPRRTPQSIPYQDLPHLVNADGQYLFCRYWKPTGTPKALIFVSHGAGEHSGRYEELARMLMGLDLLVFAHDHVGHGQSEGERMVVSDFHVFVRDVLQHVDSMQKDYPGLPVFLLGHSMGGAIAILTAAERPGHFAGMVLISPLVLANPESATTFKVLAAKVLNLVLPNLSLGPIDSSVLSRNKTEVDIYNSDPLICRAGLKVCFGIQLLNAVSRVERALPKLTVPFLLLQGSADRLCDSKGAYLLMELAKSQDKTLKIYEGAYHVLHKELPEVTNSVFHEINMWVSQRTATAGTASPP
Assay: In vitro monoglyceride stability of lipid prodrugs with lipoprotein lipase and rhMAGL
Assay type: in vitro ADME
Conditions: 50 μM prodrug, 10 mg/mL BSA, LPL 300 units/mL, 180 vs 30 minutes, 37° C., scale −10 to 10
Method: The stability of lipid prodrugs of 2-bromo-LSD was evaluated in the presence or absence of recombinant human monoacylglyceride lipase (rhMAGL). 50 µM of prodrug was incubated in 10 mg/mL BSA supplemented with lipoprotein lipase (300 units/mL) and rhMAGL (0-0.5 μg/mL). The concentration of MAGL may be adjusted based on observed activity. Reactions were initiated via the addition of prodrug and incubated at 37° C. for 180 minutes. Aliquots were removed at 30, 60, 120, and 180 minutes and the reaction quenched with the addition of cold acetonitrile spiked with internal standard(s) (1:3 sample to acetonitrile). Samples were vortexed and centrifuged and the supernatant transferred and diluted in 0.1% formic acid water (1:3 supernatant to 0.1% formic acid water). Samples were analyzed via LC-MS. Monoglyceride stability was calculated using the following equations:
LPL MG Ratio=MG Peak Area at 180 minutes for LPL only/MG Peak area at 30 minutes for LPL only
rhMAGLMG Ratio=MG Peak Area at 180 minutes for LPLand rhMAGL/MG Peak Area at 30 minutes for LPLand rhMAGL
MG Stability=((rhMAGLMG Ratio−(1−LPL MG Ratio))*10
Stability is calculated on a scale of −10 to 10, with 10 representing 100% monoglyceride remaining (i.e., highest stability) and −10 representing 100% monoglyceride loss (i.e., lowest stability). Monoglyceride stability is represented by the following categories, wherein A is a stability score of 5 to 10, B is a stability score of 0 to 5, C is a stability score of −5 to 0, and D is a stability score of −5 to −10.

Row | Compound | Monoacylglyceride Stability
1 | CCCCCCCC(=O)OCC(COC(=O)CCCCCCC)OC(=O)CC1(CC(=O)OCCCCC(=O)n2c(Br)c3c4c(cccc42)C2=C[C@@H](C(=O)N(CC)CC)CN(C)[C@@H]2C3)CC1 [Compound I-18, 2BL-FSI5-C5bcPr-2-TG-octanoate] | A (A is a stability score of 5 to 10)
2 | CCCCCCCC(=O)OCC(COC(=O)CCCCCCC)OC(=O)CC(C)(C)CCC(=O)OCCCCC(=O)n1c(Br)c2c3c(cccc31)C1=C[C@@H](C(=O)N(CC)CC)CN(C)[C@@H]1C2 [Compound I-19, 2BL-FSI5-C6bbGMe-2-TG-octanoate] | A (A is a stability score of 5 to 10)
3 | CCCCCCCC/C=C\CCCCCCCC(=O)OCC(COC(=O)CCCCCCC/C=C\CCCCCCCC)OC(=O)CC(C)CC(=O)OCCCC(=O)n1c(Br)c2c3c(cccc31)C1=C[C@@H](C(=O)N(CC)CC)CN(C)[C@@H]1C2 (stereo partly shown) [Compound I-14, 2BL-FSI4-C5bMe-2-TG-oleate] | A (A is a stability score of 5 to 10)
4 | CCCCCCCC/C=C\CCCCCCCC(=O)OCC(COC(=O)CCCCCCC/C=C\CCCCCCCC)OC(=O)CC(C)CCCCCCCCC(=O)OCn1c(Br)c2c3c(cccc31)C1=C[C@@H](C(=O)N(CC)CC)CN(C)[C@@H]1C2 (stereo partly shown) [Compound I-6, 2BL-ASI-C12bMe-2-TG-oleate] | C (C is a stability score of −5 to 0)
5 | CCCCCCCC(=O)OCC(COC(=O)CCCCCCC)OC(=O)CC1(CC(=O)OCn2c(Br)c3c4c(cccc42)C2=C[C@@H](C(=O)N(CC)CC)CN(C)[C@@H]2C3)CC1 [Compound I-25, 2BL-ASI-C5bcPr-2-TG-octanoate] | D (D is a stability score of −5 to −10)
6 | CCCCCCCC/C=C\CCCCCCCC(=O)OCC(COC(=O)CCCCCCC/C=C\CCCCCCCC)OC(=O)CC(C)CC(=O)Oc1ccc(COC(=O)n2c(Br)c3c4c(cccc42)C2=C[C@@H](C(=O)N(CC)CC)CN(C)[C@@H]2C3)cc1 (stereo partly shown) [Compound I-21, 2BL-CPHB-C5bMe-2-TG-oleate] | A (A is a stability score of 5 to 10)
7 | CCCCCCCC/C=C\CCCCCCCC(=O)OCC(COC(=O)CCCCCCC/C=C\CCCCCCCC)OC(=O)CC(C)CC(=O)OCCCCC(=O)n1c(Br)c2c3c(cccc31)C1=C[C@@H](C(=O)N(CC)CC)CN(C)[C@@H]1C2 (stereo partly shown) [Compound I-17, 2BL-FSI5-C5bMe-2-TG-oleate] | A (A is a stability score of 5 to 10)
8 | CCCCCCCC/C=C\CCCCCCCC(=O)OCC(COC(=O)CCCCCCC/C=C\CCCCCCCC)OC(=O)CC(C)CC(=O)Oc1ccc(Cn2c(Br)c3c4c(cccc42)C2=C[C@@H](C(=O)N(CC)CC)CN(C)[C@@H]2C3)cc1 (stereo partly shown) [Compound I-20, 2BL-PHB-C5bMe-2-TG-oleate] | A (A is a stability score of 5 to 10)
9 | CCCCCCCC(=O)OCC(COC(=O)CCCCCCC)OC(=O)CC(C)(C)CCC(=O)OCOC(=O)n1c(Br)c2c3c(cccc31)C1=C[C@@H](C(=O)N(CC)CC)CN(C)[C@@H]1C2 [Compound I-23, 2BL-CASI-C6bbGMe-2-TG-octanoate] | A (A is a stability score of 5 to 10)
10 | CCCCCCCC(=O)OCC(COC(=O)CCCCCCC)OC(=O)CC(C)CC(=O)OCOC(=O)n1c(Br)c2c3c(cccc31)C1=C[C@@H](C(=O)N(CC)CC)CN(C)[C@@H]1C2 (stereo partly shown) [Compound I-7, 2BL-CASI-C5bMe-2-TG-octanoate] | A (A is a stability score of 5 to 10)
11 | CCCCCCCC/C=C\CCCCCCCC(=O)OCC(COC(=O)CCCCCCC/C=C\CCCCCCCC)OC(=O)CC(C)CCCCCCC(=O)n1c(Br)c2c3c(cccc31)C1=C[C@@H](C(=O)N(CC)CC)CN(C)[C@@H]1C2 (stereo partly shown) [Compound I-24, 2BL-C10bMe-2-TG-oleate] | A (A is a stability score of 5 to 10)
12 | CCCCCCCC(=O)OCC(COC(=O)CCCCCCC)OC(=O)CC(C)(C)CCC(=O)OCn1c(Br)c2c3c(cccc31)C1=C[C@@H](C(=O)N(CC)CC)CN(C)[C@@H]1C2 [Compound I-27, 2BL-ASI-C6bbGMe-2-TG-octanoate] | D (D is a stability score of −5 to −10)
13 | CCCCCCCC(=O)OCC(COC(=O)CCCCCCC)OC(=O)CC1(CC(=O)OCOC(=O)n2c(Br)c3c4c(cccc42)C2=C[C@@H](C(=O)N(CC)CC)CN(C)[C@@H]2C3)CC1 [I-9′, 2BL-CASI-C5bcPr-2-TG-octanoate] | A (A is a stability score of 5 to 10)
14 | CCCCCCCC(=O)OCC(COC(=O)CCCCCCC)OC(=O)CC1(CC(=O)n2c(Br)c3c4c(cccc42)C2=C[C@@H](C(=O)N(CC)CC)CN(C)[C@@H]2C3)CC1 [Compound I-26, 2BL-C5bcPr-2-TG-octanoate] | A (A is a stability score of 5 to 10)
15 | CCCCCCCC(=O)OCC(COC(=O)CCCCCCC)OC(=O)CC(C)(C)CCC(=O)OCCCC(=O)n1c(Br)c2c3c(cccc31)C1=C[C@@H](C(=O)N(CC)CC)CN(C)[C@@H]1C2 [Compound I-22, 2BL-FSI4-C6bbGMe-2-TG-octanoate] | A (A is a stability score of 5 to 10)
16 | CCCCCCCC(=O)OCC(COC(=O)CCCCCCC)OC(=O)CC(C)(C)CC(=O)OCOC(=O)n1c(Br)c2c3c(cccc31)C1=C[C@@H](C(=O)N(CC)CC)CN(C)[C@@H]1C2 [Compound I-9, 2BL-CASI-C5bbGMe-2-TG-octanoate] | A (A is a stability score of 5 to 10)
17 | CCCCCCCC/C=C\CCCCCCCC(=O)OCC(COC(=O)CCCCCCC/C=C\CCCCCCCC)OC(=O)CC(C)CCCCC(=O)n1c(Br)c2c3c(cccc31)C1=C[C@@H](C(=O)N(CC)CC)CN(C)[C@@H]1C2 (stereo partly shown) [Compound I-2, 2BL-C8bMe-2-TG-oleate] | A (A is a stability score of 5 to 10)
18 | CCCCCCCC/C=C\CCCCCCCC(=O)OCC(COC(=O)CCCCCCC/C=C\CCCCCCCC)OC(=O)CC(C)CC(=O)OCn1c(Br)c2c3c(cccc31)C1=C[C@@H](C(=O)N(CC)CC)CN(C)[C@@H]1C2 (stereo partly shown) [Compound I-4, 2BL-ASI-C5bMe-2-TG-oleate] | D (D is a stability score of −5 to −10)
19 | CCCCCCCC(=O)OCC(COC(=O)CCCCCCC)OC(=O)CC(C)(C)CC(=O)OCCCCC(=O)n1c(Br)c2c3c(cccc31)C1=C[C@@H](C(=O)N(CC)CC)CN(C)[C@@H]1C2 [Compound I-16, 2BL-FSI5-C5bbGMe-2-TG-octanoate] | A (A is a stability score of 5 to 10)
20 | CCCCCCCC/C=C\CCCCCCCC(=O)OCC(COC(=O)CCCCCCC/C=C\CCCCCCCC)OC(=O)CC(C)CCCCC(=O)OCn1c(Br)c2c3c(cccc31)C1=C[C@@H](C(=O)N(CC)CC)CN(C)[C@@H]1C2 (stereo partly shown) [Compound I-5, 2BL-ASI-C8bMe-2-TG-oleate] | C (C is a stability score of −5 to 0)
21 | CCCCCCCC(=O)OCC(COC(=O)CCCCCCC)OC(=O)CC1(CC(=O)OCCCC(=O)n2c(Br)c3c4c(cccc42)C2=C[C@@H](C(=O)N(CC)CC)CN(C)[C@@H]2C3)CC1 [I-15′, 2BL-FSI4-C5bcPr-2-TG-octanoate] | A (A is a stability score of 5 to 10)
22 | CCCCCCCC(=O)OCC(COC(=O)CCCCCCC)OC(=O)CC(C)(C)CC(=O)OCCCC(=O)n1c(Br)c2c3c(cccc31)C1=C[C@@H](C(=O)N(CC)CC)CN(C)[C@@H]1C2 [Compound I-15, 2BL-FSI4-C5bbGMe-2-TG-octanoate] | B (B is a stability score of 0 to 5)
23 | CCCCCCCC/C=C\CCCCCCCC(=O)OCC(COC(=O)CCCCCCC/C=C\CCCCCCCC)OC(=O)CC(C)CC(=O)n1c(Br)c2c3c(cccc31)C1=C[C@@H](C(=O)N(CC)CC)CN(C)[C@@H]1C2 (stereo partly shown) [Compound I-1, 2BL-C5bMe-2-TG-oleate] | A (A is a stability score of 5 to 10)
24 | CCCCCCCC(=O)OCC(COC(=O)CCCCCCC)OC(=O)CC(C)(C)CC(=O)OCn1c(Br)c2c3c(cccc31)C1=C[C@@H](C(=O)N(CC)CC)CN(C)[C@@H]1C2 [Compound I-28, 2BL-ASI-C5bbGMe-2-TG-octanoate] | D (D is a stability score of −5 to −10)
25 | CCCCCCCC/C=C\CCCCCCCC(=O)OCC(COC(=O)CCCCCCC/C=C\CCCCCCCC)OC(=O)CC(C)CCCCCCC(C)CC(=O)n1c(Br)c2c3c(cccc31)C1=C[C@@H](C(=O)N(CC)CC)CN(C)[C@@H]1C2 (stereo partly shown) [Compound I-3, 2BL-C12b′bMe-2-TG-oleate] | B (B is a stability score of 0 to 5)

Reference: patent US20260242371A1, “LIPID PRODRUGS OF BROM[…] USES THEREOF” (priority 2023, published 2026)
